US20090155903A1, “PHARMACEUTICAL COMPOSITION AND METHOD” (Myriad Genetics, Incorporated, priority 2004, published 2009)

Columns and labels:
COX1 = biological target: T1, COX1 (Ovis aries, UniProt P05979); test: COX inhibitor screening kit (Cayman Chemical), COX1; format: biochemical; conditions: 100 μM compound
T1 construct: purchased Cayman Chemical, Ann Arbor, Mich; 560131
T1 sequence (P05979 25-600): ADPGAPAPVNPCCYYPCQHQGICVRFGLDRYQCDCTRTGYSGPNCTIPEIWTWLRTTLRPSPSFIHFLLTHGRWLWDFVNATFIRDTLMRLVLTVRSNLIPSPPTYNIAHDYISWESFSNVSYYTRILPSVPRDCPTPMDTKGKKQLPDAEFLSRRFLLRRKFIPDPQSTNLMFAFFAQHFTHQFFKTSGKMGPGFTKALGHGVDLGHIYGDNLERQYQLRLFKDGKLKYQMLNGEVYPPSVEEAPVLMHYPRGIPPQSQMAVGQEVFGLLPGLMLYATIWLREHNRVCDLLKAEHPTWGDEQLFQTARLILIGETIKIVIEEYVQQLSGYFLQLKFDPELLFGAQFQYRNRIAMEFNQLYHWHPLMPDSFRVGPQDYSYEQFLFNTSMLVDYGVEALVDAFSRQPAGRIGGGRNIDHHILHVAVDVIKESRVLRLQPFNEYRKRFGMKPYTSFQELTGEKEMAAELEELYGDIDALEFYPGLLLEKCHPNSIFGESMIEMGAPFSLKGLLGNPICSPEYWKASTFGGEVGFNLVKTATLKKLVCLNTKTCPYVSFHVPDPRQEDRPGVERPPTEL
Description: (§1) The invention is based on the fact that the inventors have discovered that compounds of the formulae above lower Aβ42 Levels in in vitro APP processing assays. Furthermore, the compounds, in general, have negligible levels of COX inhibition and therefore are thought to essentially be devoid of the deleterious side-effects associated with COX inhibition. […] Preferred compounds of the formulae for use in the invention are those that have little or negligible COX1 and/or COX2 inhibition at 1 μM, more preferred are those that little or negligible COX1 and/or COX2 inhibition at 10 μM, and more preferred are those that little or negligible COX1 and/or COX2 inhibition at 100 μM compound. COX1 and COX2 inhibition can be determined with a COX inhibitor screening kit from e.g., Cayman Chemical, Ann Arbor, Mich. (Cat. #560131).
(§2) The invention is related to the inventors' discovery that compounds of Formula I-Va lower Aβ42 levels in APP processing assays. Furthermore, compounds of Formula I-Va, in general, have negligible levels of COX inhibition and therefore are thought to essentially be devoid of the deleterious side-effects associated with COX inhibition. […] Preferred compounds of Formula I-Va for use in the invention are those that have little or negligible COX1 and/or COX2 inhibition at 1 μM, more preferred are those that have little or negligible COX1 and/or COX2 inhibition at 10 μM, and more preferred are those that have little or negligible COX1 and/or COX2 inhibition at 100 μM compound. COX1 and COX2 inhibition can be determined with a COX inhibitor screening kit from e.g., Cayman Chemical, Ann Arbor, Mich. (Cat. #560131). […] Representative compounds found to lower Aβ42 levels using the previously described assay by at least 50% of DMSO control at concentrations ranging from 30-80 μM include compounds 1, 11, 21, 22, 24, 25, 26, 38, 43, 64, 67, 98, 100, and 102. Particularly preferred compounds of Formula I-Va for use in the methods and embodiments of the invention include those in Tables 2-7 below.

COX2 = biological target: T2, COX2 (Homo sapiens, UniProt P35354); test: COX inhibitor screening kit (Cayman Chemical), COX2; format: biochemical; conditions: 100 μM compound
T2 construct: purchased Cayman Chemical, Ann Arbor, Mich; 560131
T2 sequence (P35354 18-604): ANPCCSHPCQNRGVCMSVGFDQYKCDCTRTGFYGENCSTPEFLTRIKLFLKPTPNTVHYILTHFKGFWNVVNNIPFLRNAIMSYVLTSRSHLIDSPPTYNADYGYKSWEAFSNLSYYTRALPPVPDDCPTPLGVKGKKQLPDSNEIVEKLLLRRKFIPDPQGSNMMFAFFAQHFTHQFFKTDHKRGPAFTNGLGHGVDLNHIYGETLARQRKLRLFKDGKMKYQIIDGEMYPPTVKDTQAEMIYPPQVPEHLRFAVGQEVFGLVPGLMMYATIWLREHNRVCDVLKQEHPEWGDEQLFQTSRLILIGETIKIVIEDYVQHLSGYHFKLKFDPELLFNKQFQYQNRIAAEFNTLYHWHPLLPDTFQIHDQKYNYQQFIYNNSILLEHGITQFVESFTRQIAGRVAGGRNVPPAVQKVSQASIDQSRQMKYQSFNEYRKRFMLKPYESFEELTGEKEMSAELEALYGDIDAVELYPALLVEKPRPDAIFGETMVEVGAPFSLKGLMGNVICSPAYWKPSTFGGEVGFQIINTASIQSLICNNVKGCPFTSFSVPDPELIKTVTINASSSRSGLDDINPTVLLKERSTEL
Description: as §1, §2

[1] = clinical trials; rofecoxib at 25 mg daily; cited from earlier work
[2] = patients with mild cognitive impairment; 4.5% for placebo; cited from earlier work

Cc1c(CC(=O)O)c2ccccc2n1C(=O)c1ccc(OC(F)(F)F)cc1 [Compound 10, 1-(4-trifluoromethoxybenzoyl)-2-methylindole-3-acetic acid]
inhibition of COX1 (COX1): not significantly inhibit
inhibition of COX2 (COX2): not significantly inhibit

Cc1c(CC(=O)O)c2ccccc2n1Cc1ccc(Br)cc1 [Compound 19, 1-(4-bromobenzyl)-2-methylindole-3-acetic acid]
inhibition of COX1 (COX1): not significantly inhibit
inhibition of COX2 (COX2): not significantly inhibit

O=C(O)c1cc([N+](=O)[O-])ccc1NCc1ccc(Cl)c(Cl)c1 [Compound 40, 2-(3,4-dichlorobenzylamino)-5-nitrobenzoic acid]
inhibition of COX1 (COX1): not significantly inhibit
inhibition of COX2 (COX2): not significantly inhibit

O=C(O)c1cc([N+](=O)[O-])ccc1NCc1cccc(Cl)c1 [Compound 43, 2-(3-chlorobenzylamino)-5-nitrobenzoic acid]
inhibition of COX1 (COX1): not significantly inhibit
inhibition of COX2 (COX2): not significantly inhibit

COc1ccc(-c2cccc(CC(=O)O)c2)cc1 [Compound 72, (4′-Methoxy-biphenyl-3-yl)-acetic acid]
inhibition of COX1 (COX1): not significantly inhibit
inhibition of COX2 (COX2): not significantly inhibit

O=C(O)c1cc2cc(OCc3ccccc3)ccc2n1Cc1ccc(C(F)(F)F)cc1 [Compound 97, 5-benzyloxy-1-(4-trifluoromethylbenzyl)-1H-indole-2-carboxylic acid]
inhibition of COX1 (COX1): not significantly inhibit
inhibition of COX2 (COX2): not significantly inhibit

COc1ccc2cc([C@H](C)C(=O)O)ccc2c1 [Naproxen]
efficacy for treating AD [1]: failed to show efficacy

CS(=O)(=O)c1ccc(C2=C(c3ccccc3)C(=O)OC2)cc1 [rofecoxib]
efficacy for treating AD [1]: failed to show efficacy
patients who developed AD [2]: 6.4%
